The subject of this assay is C57BL/6 mice. Description: Mouse test: muscle wet weight (body weight ratio) and gastrocnemius histology after 4-week oral administration. The settings on record: once a day for 4 weeks, n=7/group. In kind it is in vivo. The protocol:
C57BL/6 mice (Charles River, Japan: healthy mice) were used as test animals to evaluate the effect of 4-week continuous ingestion of Bifidobacterium breve FERM BP-11175 on muscle mass increase.
After receiving the test animals at 9 weeks old, F-2 feed (manufactured by Funabashi Pharm) and tap water were freely ingested. After one week of acclimatization, the test animals were divided into 3 groups (n=7/group): a control group (administered 10 mL/kg body weight of tap water); a Bifidobacterium administration group (administered 10 mL/kg body weight of culture supernatant of Bifidobacterium breve FERM BP-11175 prepared in (1) of test example 1); and a leucine administration group (administered 1.5 g/kg body weight of leucine), and oral administration was continued for each mouse using an oral probe once a day for 4 weeks. After the final administration, the test animals were fasted for 3 hours, followed by treatment under sevoflurane anesthesia, and plantaris and gastrocnemius was removed to measure the wet weight (body weight ratio) of each tissue. For gastrocnemius, the thin-sectioned tissue was stained with HE, and then the tissue was observed under a microscope.

Structures are written as SMILES.

Regarding `CC(C)C[C@H](N)C(=O)O` [Leucine, leucine], the “Gastrocnemius tissue weight (body weight ratio) [Mean value ± SE]” value amounted to 5.417 ± 0.125 mg/g body weight and the “Plantaris tissue weight (body weight ratio) [Mean value ± SE]” value was determined as 0.706 ± 0.027 mg/g body weight.
